The term EC50 denotes the concentration giving half of the maximal effect. The low end stands for higher potency in that assay, the high end for lower potency in that assay. A word on the Ki: it is a dissociation constant, usually derived from enzyme kinetics or from competition with a known ligand. A higher Ki goes with weaker binding.

Assay [1] deals with T1, Melatonin receptor type 1B (Homo sapiens, UniProt P49286).
T1 sequence (P49286 whole entry): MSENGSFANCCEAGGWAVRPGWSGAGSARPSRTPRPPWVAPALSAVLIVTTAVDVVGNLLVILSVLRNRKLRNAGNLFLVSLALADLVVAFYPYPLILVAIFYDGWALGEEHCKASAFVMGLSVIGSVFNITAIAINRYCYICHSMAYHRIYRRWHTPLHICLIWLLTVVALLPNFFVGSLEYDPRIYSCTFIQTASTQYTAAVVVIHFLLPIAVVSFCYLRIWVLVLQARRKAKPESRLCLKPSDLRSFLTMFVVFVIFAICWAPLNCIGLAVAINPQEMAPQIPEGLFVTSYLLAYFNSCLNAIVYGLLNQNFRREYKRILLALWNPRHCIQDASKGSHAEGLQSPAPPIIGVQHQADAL
Put plainly: Intrinsic activity at human MT2 receptor expressed in CHO cell membranes after 1 hr by [35S]GTPgammaS binding assay. The format is functional. Background: GTPγS resists hydrolysis and so accumulates on activated G proteins.

Assay [2] concerns the target T2, Melatonin receptor type 1A (Homo sapiens, UniProt P48039). Put plainly: Intrinsic activity at human MT1 receptor expressed in CHO cell membranes after 1 hr by [35S]GTPgammaS binding assay. The format is functional.
Assay [3] addresses T1, Melatonin receptor type 1B. Put plainly: Displacement of 2-[125I]iodomelatonin from human MT2 receptor expressed in CHO cell membranes after 120 mins.
Assay [4] has as its target T2, Melatonin receptor type 1A. Put plainly: Displacement of 2-[125I]iodomelatonin from human MT1 receptor expressed in CHO cell membranes after 120 mins.
The target of assay [5] is T3, 5-hydroxytryptamine receptor 2C (Homo sapiens, UniProt P28335).
T3 sequence (P28335 whole entry): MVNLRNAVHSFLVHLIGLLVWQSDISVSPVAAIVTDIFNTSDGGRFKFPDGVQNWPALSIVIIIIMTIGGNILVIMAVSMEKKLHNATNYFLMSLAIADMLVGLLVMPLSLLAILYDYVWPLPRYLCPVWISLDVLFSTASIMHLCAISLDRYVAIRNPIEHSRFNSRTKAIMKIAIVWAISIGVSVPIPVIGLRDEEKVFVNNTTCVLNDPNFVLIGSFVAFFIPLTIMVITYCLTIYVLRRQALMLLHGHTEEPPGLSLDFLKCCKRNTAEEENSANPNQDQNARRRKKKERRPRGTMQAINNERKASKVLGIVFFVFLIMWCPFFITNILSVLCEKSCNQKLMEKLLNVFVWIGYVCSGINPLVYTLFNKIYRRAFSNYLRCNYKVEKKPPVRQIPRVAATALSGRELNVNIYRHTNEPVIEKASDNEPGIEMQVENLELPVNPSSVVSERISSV
Put plainly: Binding affinity to 5-HT2C receptor (unknown origin).

The species entered for a further assay is Homo sapiens. Put plainly: Selectivity ratio of Ki for human MT1 receptor to Ki for human MT2 receptor.

T2 sequence (P48039 whole entry): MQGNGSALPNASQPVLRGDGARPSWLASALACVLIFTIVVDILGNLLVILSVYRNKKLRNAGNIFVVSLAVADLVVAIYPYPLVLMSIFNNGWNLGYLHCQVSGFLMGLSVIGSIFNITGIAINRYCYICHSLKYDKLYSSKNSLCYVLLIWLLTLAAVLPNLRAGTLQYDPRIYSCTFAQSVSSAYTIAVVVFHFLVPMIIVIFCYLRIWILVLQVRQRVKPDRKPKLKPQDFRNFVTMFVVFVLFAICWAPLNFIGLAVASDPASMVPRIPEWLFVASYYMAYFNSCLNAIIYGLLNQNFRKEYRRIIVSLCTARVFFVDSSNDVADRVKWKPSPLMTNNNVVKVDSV

As for `CCNC(=O)NCCc1coc2ccc3ccc(OC)cc3c12`, the concentration giving a half-maximal response (EC50) in assay [1] was 6.2 nM; in assay [2] it was 75 nM. The Ki in assay [3] is 226 nM; in assay [4] it was 157 nM; in assay [5] it was above 1000 nM.

As to `COc1ccc2ccc3occ(CCNC(C)=O)c3c2c1`, the EC50 in assay [1] was found to be 0.7 nM; in assay [2] it was 4.6 nM. Further, the Ki in assay [3] is 0.09 nM; in assay [4] it was 2.8 nM; in assay [5], 140 nM. In addition, in the assay filed under Homo sapiens, the Ratio Ki came out at 31.

On to `COc1ccc2ccc3oc(CCNC(C)=O)cc3c2c1`, for which the EC50 in assay [1] and in assay [2] was above 10000 nM in each case. The Ki is 1.7 nM in assay [3], 10 nM in assay [4] and above 10000 nM in assay [5].

For the compound `COc1ccc2ccc3oc(CNC(=O)C4CC4)cc3c2c1`, the EC50 in assay [1] was 0.98 nM; in assay [2], 1 nM. Further, the values for the Ki in assay [3], in assay [4] and in assay [5] were 0.6 nM, 1.9 nM and above 10000 nM, respectively.

For `CCNC(=O)NCCc1cc2c(ccc3ccc(OC)cc32)o1`, the inhibition constant (Ki) in assay [3] is 46 nM; in assay [4], 210 nM; in assay [5], above 10000 nM.

In the case of `COc1ccc2ccc3occ(CNC(C)=O)c3c2c1`, the EC50 in assay [1] stood at 1.4 nM; in assay [2], 4.8 nM. Further, the Ki is 0.7 nM in assay [3], 4.6 nM in assay [4] and above 10000 nM in assay [5].

For `CCNC(=S)NCc1cc2c(ccc3ccc(OC)cc32)o1`, the results for the inhibition constant (Ki) in assay [3], in assay [4] and in assay [5] were 7 nM, 140 nM and 730 nM, respectively.

As for `COc1ccc2ccc3occ(CCNC(=O)C4CC4)c3c2c1`, the figures for the concentration giving a half-maximal response (EC50) in assay [1] and in assay [2] were 3.2 nM and 5.2 nM, respectively. The values for the Ki in assay [3], in assay [4] and in assay [5] were 13.3 nM, 236 nM and above 1000 nM, respectively.

On to `COc1ccc2ccc3oc(CCNC(=O)C4CC4)cc3c2c1`, for which the EC50 in assay [1] is 5.8 nM; in assay [2], above 10000 nM. Moreover, the Ki is 11 nM in assay [3], 73 nM in assay [4] and above 10000 nM in assay [5].

Regarding `CCNC(=O)NCc1cc2c(ccc3ccc(OC)cc32)o1`, the EC50 in assay [1] is 10 nM; in assay [2], above 10000 nM. The figures for the Ki in assay [3], in assay [4] and in assay [5] were 4.2 nM, 17 nM and above 10000 nM, respectively.

Turning to `COc1ccc2ccc3occ(CNC(=O)CF)c3c2c1`, the EC50 in assay [1] stood at 3.4 nM; in assay [2], 29 nM. Besides, the Ki in assay [3] was 2.1 nM; in assay [4], 9.9 nM; in assay [5] it was above 10000 nM.

In the case of `COc1ccc2ccc3occ(CNC(=O)C4CC4)c3c2c1`, the EC50 in assay [1] turned out to be 8.8 nM; in assay [2] it was 1 nM. In addition, the Ki in assay [3] is 15 nM; in assay [4], 20 nM; in assay [5], above 10000 nM.

In turn, `CNC(=O)NCc1cc2c(ccc3ccc(OC)cc32)o1` returned a Ki in assay [5] above 10000 nM.

As for `COc1ccc2ccc3oc(CNC(C)=O)cc3c2c1`, the EC50 in assay [1] worked out at 0.98 nM; in assay [2] it was 7.7 nM. In addition, the inhibitory constant (Ki) was 0.4 nM in assay [3], 2.1 nM in assay [4] and above 10000 nM in assay [5].

Turning to `COc1ccc2ccc3oc(CNC(=O)CF)cc3c2c1`, the figures for the EC50 in assay [1] and in assay [2] were 1.1 nM and 9.5 nM, respectively. For the same compound, the Ki was 0.7 nM in assay [3], 5.7 nM in assay [4] and above 10000 nM in assay [5].

As to `COc1ccc2ccc3occ(CNC(=O)C(C)C)c3c2c1`, the EC50 in assay [1] amounted to 8.8 nM; in assay [2], 8.1 nM. The Ki in assay [3] is 24 nM; in assay [4] it was 158 nM; in assay [5] it was above 10000 nM.

With `CNC(=S)NCc1cc2c(ccc3ccc(OC)cc32)o1`, the values for the Ki in assay [3], in assay [4] and in assay [5] were 0.8 nM, 43 nM and above 10000 nM, respectively.

The values above are taken from ChEMBL document CHEMBL3758099, “Melatonergic ligands: Design, synthesis and pharmacological evaluation of novel series of naphthofuranic derivatives” (Eur J Med Chem, 2016).
